PubChem BioAssay (NCI)
Values joined by “and” are separate entries in the source; they are usually repeats but may differ in a detail not shown here. Identical values can stand only once.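 How tested: cells in 96-well plates exposed to compound for 48 hours at five concentrations. Abbreviation: GI50, concentration required for 50% inhibition of growth. TGI denotes the concentration required for complete inhibition of growth.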

Experiments:
Experiment in all cases: DTP human tumour cell line panel, 48 h
[1] = test system: NCI-H226 lung
[2] = test system: A498 renal
[3] = test system: RXF 393 renal
[4] = test system: CCRF-CEM leukemia
[5] = test system: NCI-H460 lung
[6] = test system: EKVX NSCLC
[7] = test system: SNB-75 CNS
[8] = test system: PC-3 prostate

SMILES	GI50 [1]	TGI [1]	GI50 [2]	TGI [2]	GI50 [3]	TGI [3]	GI50 [4]	TGI [4]	GI50 [5]	TGI [5]	GI50 [6]	TGI [6]	GI50 [7]	TGI [7]	GI50 [8]	TGI [8]
N#Cc1ccc(/C=C/C(=O)c2ccccc2)cc1	27.2 µM and 15.3 µM	> 68.8 µM and 31 µM	14300 nM and 12300 nM	29.5 µM and 24.9 µM	7.15 µM and 5.93 µM	19.3 µM and 18.2 µM	8.31 µM and 2.86 µM	> 57 µM and 11.5 µM	14.5 µM and 8.35 µM	28.9 µM and 22.4 µM	16.6 µM and 13.6 µM	34.9 µM and 27.4 µM	14.5 µM and 13.9 µM	27.6 µM and 27.5 µM	13 µM and 10.7 µM	31.4 µM and 26.6 µM
CC/C(=N/N=C(N)N)c1ccc(NC(=O)Nc2ccc(/C(CC)=N/N=C(N)N)cc2)cc1	10.8 µM	39.8 µM	36300 nM	> 100 µM	7.81 µM	33.2 µM	5.8 µM	28.7 µM	4.1 µM	> 100 µM	6.55 µM	39.6 µM	13.6 µM	42.1 µM	6.27 µM	33.7 µM
COc1cc(Cn2c(SCC(=O)Nc3ccc(Cl)cc3)nc3ccccc3c2=O)cc(OC)c1OC	4 µM	26.2 µM	2420 nM	12.2 µM	2.59 µM	8.88 µM	> 100 µM	> 100 µM	10.4 µM	59.1 µM			1.58 µM	4.89 µM	16.7 µM	> 100 µM
COc1cc(/C=C/c2cc(O)c(C/C=C(\C)CC/C=C(\C)CO)c(O)c2)cc2c1O[C@]1(C)CC[C@@H](O)C(C)(C)[C@H]1C2		> 100 µM				> 100 µM				> 100 µM		98.6 µM	55 µM	> 100 µM		> 100 µM
Cc1cn2c(/C=C3/C(=O)Nc4ccc(Cl)cc43)c(C)nc2s1	11 µM	> 90.6 µM	100 nM	0.645 µM	6.74 µM	> 100 µM			1.04 µM	> 59.4 µM	12.5 µM	> 100 µM	16.3 µM	29.8 µM	0.0447 µM	
COc1ccc(-c2nc3sccn3c2-c2ccnc(NCCCNS(=O)(=O)c3ccc(F)cc3)n2)cc1	1.59 µM	5.28 µM	2600 nM	> 100 µM	3.13 µM	13.1 µM	1.52 µM	> 100 µM	2.78 µM	37.6 µM	3.12 µM	> 100 µM	2.25 µM	6.04 µM	1.74 µM	6.75 µM
CNc1ncc2cc(-c3cc(NC(=O)NCCC(C)(C)C)c(F)cc3C)c(C)nc2n1	1.11 µM and 0.298 µM	> 100 µM	149 nM and 167 nM	0.743 µM and 0.65 µM	1.01 µM and 0.504 µM	5.99 µM and > 6.39 µM	10.1 µM and > 9.36 µM	> 100 µM	0.473 µM and 0.332 µM	> 100 µM	2.54 µM and 1.38 µM	99.6 µM and > 10 µM	0.949 µM and 1.04 µM	7.36 µM and 7.6 µM	17.4 µM and 6.93 µM	> 100 µM
Fc1ccc(-c2nn3c(COc4ccc(Cl)cc4Cl)nnc3s2)cc1Oc1ccccc1	21 µM	74 µM	20200 nM	40.6 µM	18.7 µM	45.9 µM	16.8 µM	39 µM	25.4 µM	> 100 µM	23.7 µM	67.3 µM	32.2 µM	91.1 µM	8.94 µM	21.4 µM
